This note sets out measurements from patent US11656221B2, “Methods to identify modulators of actin-binding proteins” (Regents of the University of Minnesota, priority 2019, dated 2023).

Data set [1] has as its target T1, GFP-ABD-L253P and mCherry (non-specific FRET) in HEK293-6E cells (Homo sapiens, UniProt O15020, L253P).
T1 construct: L252P β-III-spectrin (human) ABD residues 1-284; expressed in transfected cells; host or cells: HEK293-6E, pTT5 vector, transient
Description: Counter FRET assay, non-specific FRET (GFP-ABD-L253P plus mCherry). The note with it: swinholide A 3 μM. The format is cell-based. As for the experimental part:
At 2×10^6 cells/mL, HEK293-6E cells were transfected with GFP-ABD (2.4 μg), Lifeact-mCherry (2.4-16.8 μg), mCherry (1.2-16.8 μg), and/or pTT5 (0.8-17.6 μg) using the 293fectin protocol (Thermo Fisher Scientific) with 20 μg total DNA. The cells were harvested 24 hours later by centrifugation at 100×g for 5 min, and then washed twice with PBS. Cell viability and concentration were determined using trypan blue assay and a Countess cell counter (Invitrogen).
Using a Multidrop Combi liquid dispenser (Thermo Fisher Scientific), 10^6 cells/mL were dispersed into 1536-well and 384-well plates as 5 or 50 μL aliquots, respectively. For control and tool compound plates, 100 nL of DMSO or potential tool compound was loaded using the Mantis (Formulatrix). […] Two to three hours after sample loading, fluorescence lifetime measurements were performed using high-throughput fluorescence plate-readers provided by Photonic Pharma LLC (MN, USA), including one detecting fluorescence lifetime and another detecting fluorescence spectra, as described previously.
To develop a biosensor that monitors the binding of mutant L253P β-III-spectrin to actin filaments in live cells, a fluorescence resonance energy transfer (FRET) approach was tested. […] To measure the non-specific component to our FRET readout, we concurrently tested expression of mCherry in place of Lifeact-mCherry. […]

Data set [2] relates to HEK293-6E cells. Description: Trypan blue cell viability assay. The format is cell-based. The conditions noted are these: 3 μM, 3 hrs. Here is the method:
HEK293-6E cell viability was measured using trypan blue (0.03%) staining and a Countess Automated Cell counter (Invitrogen). Non-transfected HEK293-6E cells were spun at 100×g for 5 min at 21° C., and resuspended in 10 mL of PBS. The centrifugation and resuspension were repeated twice more. Final cell concentration was 1×10^6 cells/mL. Cells were incubated with 2% DMSO, or 3-50 μM compound (as indicated) for 3 hrs at room temperature (21° C.). After addition of 100 μL of 0.06% trypan blue solution in PBS, 10 μL was loaded on a slide and injected into the cell counter, and cell viability was measured.

T1 sequence (O15020 1-284 L253P): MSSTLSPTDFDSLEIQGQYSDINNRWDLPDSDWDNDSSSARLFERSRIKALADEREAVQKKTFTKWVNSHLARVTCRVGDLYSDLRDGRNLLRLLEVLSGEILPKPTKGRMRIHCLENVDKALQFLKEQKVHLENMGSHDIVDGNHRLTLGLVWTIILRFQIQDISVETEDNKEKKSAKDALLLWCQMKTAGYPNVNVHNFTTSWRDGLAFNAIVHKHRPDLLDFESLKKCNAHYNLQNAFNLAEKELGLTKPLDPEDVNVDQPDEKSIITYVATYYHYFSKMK

For the molecule `CO[C@H]1C[C@H](CC[C@H](C)[C@H](O)[C@H](C)[C@H]2OC(=O)/C=C/C(C)=C/C[C@H](O)C[C@@H]3C=CC[C@@H](C[C@H](OC)[C@@H](C)[C@@H](O)C[C@@H](O)[C@H](C)[C@@H]([C@@H](C)[C@@H](O)[C@@H](C)CC[C@H]4C[C@H](OC)C[C@H](C)O4)OC(=O)/C=C/C(C)=C/C[C@H](O)C[C@@H]4C=CC[C@@H](C[C@H](OC)[C@@H](C)[C@@H](O)C[C@@H](O)[C@@H]2C)O4)O3)O[C@@H](C)C1` [swinholide A], the “effect on counter (non-specific) FRET” value in data set [1] was “did not significantly alter”. Further, the “effect on HEK293-6E cell viability” value in data set [2] is “did not significantly alter and not”.
